{"source": "patent US12673052B2", "about": "“Combinations for the treatment of cancer” (Exelixis, Inc., priority 2020, dated 2026)", "key": {"[1]": {"test": "Liver microsomal stability assay", "format": "in vitro ADME, monkey", "settings": "liver microsomes", "protocol": "(§1) In the liver microsomal stability assay, CLint was 0.601 mL/min/g liver in mouse, 0.563 mL/min/g liver in rat, 0.315 mL/min/g liver in dog, 0.734 mL/min/g liver in monkey, and 0.639 mL/min/g liver in human. In the hepatocyte stability assay, Compound 1 CLint was 0.373 mL/min/g liver in mouse, 0.285 mL/min/g liver in rat, 1.08 mL/min/g liver in dog, 0.533 mL/min/g liver in monkey, and 0.317 mL/min/g liver in human."}, "[2]": {"test": "Liver microsomal stability assay", "format": "in vitro ADME, rat", "settings": "liver microsomes", "protocol": "as §1"}, "[3]": {"test": "Repeat-dose toxicity studies (7-day range-finding, definitive 28-day, 14-day recovery)", "format": "in vivo, rats", "protocol": "The nonclinical toxicity of Compound 1 was characterized in dose range-finding 7-day and definitive 28-day repeat-dose studies in rats and dogs, and in in vitro bacterial and mammalian genotoxicity bioassays. Compound 1 was also evaluated in definitive neurobehavioral, respiratory and cardiovascular safety pharmacology studies.\nFollowing a 2-week recovery phase, increased physeal thickness and tooth degeneration persisted but were less severe. These findings are consistent with an on-target pharmacologic VEGFR inhibition by Compound 1.\nThese microscopic lesions were fully reversible following a 14-day recovery period, and were associated with correlative reversible changes in clinical chemistry markers of hepatic function (eg, <2-fold increase in AST and <5-fold increase in ALT at 10 mg/kg/day)."}, "[4]": {"tested_on": "CT26 colon carcinoma cells", "test": "Efficacy after oral dosing in CT26 tumor bearing female Balb/c mice", "format": "in vivo", "source_text": "In this study, the inhibitory effects of Compound 1 as a single agent and in combination with an anti-PD-1 inhibitor in Balb/c mice grafted with CT26 colon carcinoma cells were studied. CT26 cells inoculated into syngeneic mice are highly tumorigenic (Brattain et al. 1980) and share molecular features with undifferentiated, invasive human colorectal carcinoma cells (Castle et al. 2014). Therefore, the CT26 cell line can serve as a valid cellular model for the metastatic and poorly differentiated human colorectal cancer. Moreover, this model has been reported to express significant levels of RTKs, indicating a potential reliance on these signaling pathway for the maintenance of a tumorigenic phenotype in vivo (Pryzybyszewska et al. 2017).\nCT26 colon carcinoma cells (ATCC, CRL-2638) were thawed from the Exelixis pharmacology cell bank into T-75 flasks (Corning, 43064U) using fresh culture medium, ie, RPMI-1640 containing 10% fetal bovine serum (GIBCO, A384002). […]\nOral doses were administered via a […], 1.5″ stainless steel needle with silicone tip (VWR, 20068-666). […] Survival was monitored for a maximum of 40 days. […]\nAll animals were measured twice a week for tumor volume and body weight using Studylog software.\nSignificance values represent differences in comparison to vehicle or anti-PD-1 treatment groups and were determined using a nonparametric Mann-Whitney U-test. […]"}, "[5]": {"test": "Liver microsomal stability assay", "format": "in vitro ADME, mouse", "settings": "liver microsomes", "protocol": "as §1"}, "[6]": {"settings": "10 mg/kg/day, daily for 4 weeks, reversible"}}}
{"smiles": "CNC(=O)c1cc2c(Oc3ccc(NC(=O)C4(C(=O)Nc5ccc(F)cc5)CC4)cc3)ccnc2cc1OC", "note": "[Compound 1, 1-N′-(4-Fluorophenvl)-1-N-[4-[7-methoxy-6-(methylcarbamovl)quinolin-4-yl]oxyphenyl]cyclopropane-1,1-dicarboxamide]", "values": [{"measurement": "CLint", "setting": "[1]", "value": 0.734, "unit": "mL/min/g liver"}, {"measurement": "CLint", "setting": "[2]", "value": 0.563, "unit": "mL/min/g liver"}, {"measurement": "histopathologic changes in female reproductive tract tissues", "setting": "[3]; 10 mg/kg/day for 4 weeks, appeared reversible", "value": "increased size and number of regressing corpora lutea in ovarian tissue and a higher frequency of dilated uteri"}, {"measurement": "hepatobiliary histologic findings", "setting": "[3]; 10 mg/kg/day, 4 weeks, minimal to mild severity, fully reversible after 14-day recovery", "value": "bile duct inflammation and hyperplasia, and individual hepatocyte necrosis"}, {"measurement": "increase in ALT", "setting": "[3]; [6]", "value": "< 5", "unit": "fold"}, {"measurement": "increase in AST", "setting": "[3]; [6]", "value": "< 2", "unit": "fold"}, {"measurement": "reversibility of adverse findings", "setting": "[3]; 14-day non-treatment recovery period", "value": "partially or completely reversible"}, {"measurement": "highest non-severely toxic dose (HNSTD)", "setting": "[3]; GLP 4-week toxicity study, highest dose tested", "value": 10, "unit": "mg/kg qd"}, {"measurement": "ophthalmic findings", "setting": "[3]; daily for 4 weeks", "value": "No adverse ophthalmic findings"}, {"measurement": "histomorphologic findings in bone and teeth", "setting": "[3]; daily for 4 weeks, >3 mg/kg/day, persisted but less severe after 2-week recovery", "value": "increased physeal thickness of the femur and degeneration of the tooth dentin and enamel"}, {"measurement": "nasal turbinate histologic findings", "setting": "[3]; recovery cohort, 10 mg/kg/day 4 weeks + 14-day non-treatment, females minimal-moderate, males slight-moderate", "value": "proliferation of nasal turbinate bone"}, {"measurement": "bone marrow microscopic findings", "setting": "[3]; repeat-dose", "value": "minimal severity decreased bone marrow cellularity"}, {"measurement": "cholesterol and triglyceride levels", "setting": "[3]; repeat-dose", "value": "Increased cholesterol and triglyceride levels"}, {"measurement": "reticulocytes", "setting": "[3]; repeat-dose", "value": "transient decreases in reticulocytes"}, {"measurement": "spleen findings", "setting": "[3]; repeat-dose", "value": "Extramedullary hematopoiesis (minimal) and increased lymphocytes (minimal-slight)"}, {"measurement": "survival (Kaplan Meier)", "setting": "[4]; 40-day dosing, P<0.0001 Compound 1 vs vehicle, P<0.0001 combination vs aPD-1 alone, P<0.05 combination vs Compound 1", "value": "Survival benefit and dose response"}, {"measurement": "tumor growth", "setting": "[4]; single agent 1, 3, 10, and 30 mg/kg/day for 40 days", "value": "tumor growth delay"}, {"measurement": "CLint", "setting": "[5]", "value": 0.601, "unit": "mL/min/g liver"}]}
